Molecules are shown by their SMILES.

The target in the assay is T1, USP28 (USP28-5(1-1077)-TEV-6*His; LifeSensors) (Homo sapiens, UniProt Q96RU2).
T1 construct: construct USP28 (USP28-5(1-1077)-TEV-6*His; LifeSensors); TEV cleavage site (C); 6xHis (C); purchased LifeSensors
T1 sequence (Q96RU2 1-1077): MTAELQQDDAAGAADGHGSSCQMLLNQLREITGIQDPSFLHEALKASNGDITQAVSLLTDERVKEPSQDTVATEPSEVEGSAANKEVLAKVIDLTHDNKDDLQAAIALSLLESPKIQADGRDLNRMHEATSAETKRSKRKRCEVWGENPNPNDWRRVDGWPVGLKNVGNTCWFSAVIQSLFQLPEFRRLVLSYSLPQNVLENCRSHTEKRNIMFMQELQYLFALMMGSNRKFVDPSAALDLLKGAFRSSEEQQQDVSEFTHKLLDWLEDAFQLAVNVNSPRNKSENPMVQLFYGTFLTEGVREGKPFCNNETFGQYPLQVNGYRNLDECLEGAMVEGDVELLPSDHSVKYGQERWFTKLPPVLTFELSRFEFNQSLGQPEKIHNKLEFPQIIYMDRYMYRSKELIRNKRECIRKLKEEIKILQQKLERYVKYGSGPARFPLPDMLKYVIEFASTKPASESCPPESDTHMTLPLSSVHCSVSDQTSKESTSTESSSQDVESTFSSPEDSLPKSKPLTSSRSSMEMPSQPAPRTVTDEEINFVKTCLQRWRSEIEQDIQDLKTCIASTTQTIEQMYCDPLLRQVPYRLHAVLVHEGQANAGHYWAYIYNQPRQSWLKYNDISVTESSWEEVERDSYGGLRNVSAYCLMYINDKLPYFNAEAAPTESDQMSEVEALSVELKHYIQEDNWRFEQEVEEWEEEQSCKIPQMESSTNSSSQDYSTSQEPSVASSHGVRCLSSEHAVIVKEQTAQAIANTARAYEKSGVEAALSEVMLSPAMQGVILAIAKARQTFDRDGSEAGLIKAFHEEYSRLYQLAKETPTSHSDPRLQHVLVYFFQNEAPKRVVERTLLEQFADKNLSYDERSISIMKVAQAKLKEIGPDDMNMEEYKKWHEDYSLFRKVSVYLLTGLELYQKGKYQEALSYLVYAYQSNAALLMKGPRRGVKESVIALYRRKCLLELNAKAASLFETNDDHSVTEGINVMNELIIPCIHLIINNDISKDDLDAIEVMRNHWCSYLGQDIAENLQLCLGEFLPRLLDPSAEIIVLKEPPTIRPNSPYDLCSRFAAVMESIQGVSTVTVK
Kind of assay: Ubiquitin-Rhodamine 110 Assay for USP28 Activity, Example A-1(b). In kind it is biochemical. As to conditions: 75 pM enzyme, 25 nM Ub-Rh110, 384-well follow-up format. As for the experimental part:
Each assay was performed in a final volume of 20 μL in assay buffer containing 20 mM Tris-HCl (pH 8.0, (1M Tris-HCl, pH 8.0 solution; Corning 46-031-CM)), 2 mM CaCl2 (1M Calcium Chloride solution; Sigma #21114) 2 mM BME (2-Mercaptoethanol; Sigma 63689-25ML-F), 0.01% Prionex ([…] filtered, Sigma #G-0411), and 0.01% Triton X-100. Stock compound solutions were stored at −20° C. as 10 mM in DMSO. Up to 1 month prior to the assay, 2 mM test compounds were pre-dispensed into assay plates (Black, low volume; Corning #3820) and frozen at −20° C. Prestamped assay plates were allowed to come to room temperature on the day of the assay. For the screen, 100 nL of 2 mM was pre-dispensed for a final screening concentration of 10 μM (DMSO(fc)=0.5%). Enzyme (USP28, construct USP28 (USP28-5(1-1077)-TEV-6*His; LifeSensors) concentration and incubation times were optimized for the maximal signal-to-background while maintaining initial velocity conditions at a fixed substrate concentration. The final concentration of the enzyme in the assay was 400 pM. Final substrate (Ub-Rh110; Ubiquitin-Rhodamine 110, R&D Systems #U-555) concentration was 25 nM with [Ub-Rh110]<<Km. 10 μL of 2× enzyme was added to assay plates (pre-stamped with compound) either simultaneously with 2×Ub-Rh110 or preincubated with USP28 40 minutes prior to the addition of 10 μL of 2×Ub-Rh110 to compound plates. Plates were incubated stacked for 90 minutes at room temperature before fluorescence was read on the Envision (Excitation at 485 nm and Emission at 535 nm; Perkin Elmer) or on the PheraSTAR (Excitation at 485 nm and Emission at 535 nm; BMG Labtech).
For follow-up studies, each assay was performed in a final volume of 15 μL in assay buffer containing 20 mM Tris-HCl (pH 8.0, (1M Tris-HCl, pH 8.0 solution; Corning 46-031-CM)), 3 mM BME (2-Mercaptoethanol; Sigma 63689-25ML-F), 0.03% BGG (0.22 μM filtered, Sigma, G7516-25G), and 0.01% Triton X-100 (Sigma, T9284-10L). Nanoliter quantities of either an 8-point or 10-point, 3-fold serial dilution in DMSO was pre-dispensed into assay plates (Perkin Elmer, ProxiPlate-384 F Plus, #) for a final test concentration of either 25 μM to 11 nM or 25 μM to 1.3 nM, respectively. Enzyme USP28, construct USP28 (USP28-5(1-1077)-TEV-6*His; LifeSensors) concentration and incubation times were optimized for the maximal signal-to-background while maintaining initial velocity conditions at a fixed substrate concentration. The final concentration of the enzyme in the assay was 75 pM. Final substrate (Ub-Rh110; Ubiquitin-Rhodamine 110, R&D Systems #U-555) concentration was 25 nM with [Ub-Rh110]<<Km. 5 μL of 2× enzyme was added to assay plates (pre-stamped with compound) preincubated with USP28 for 30 minutes and then 5 μL of 2×Ub-Rh110 was added to assay plates. Plates were incubated stacked for 20 minutes at room temperature before 5 μL of stop solution was added (final concentration of 10 mM citric acid (Sigma, 251275-500G)). Fluorescence was read on the Envision (Excitation at 485 nm and Emission at 535 nm; Perkin Elmer) or on the PheraSTAR (Excitation at 485 nm and Emission at 535 nm; BMG Labtech).
For assay formats Examples A-1a, A-1b, and A-2, data were reported as percent inhibition compared with control wells based on the following equation: % inh=1−((FLU−AveLow)/(AveHigh−AveLow)) where FLU=measured Fluorescence, AveLow=average Fluorescence of no enzyme control (n=16), and AveHigh=average Fluorescence of DMSO control (n=16). IC50 values were determined by curve fitting of the standard 4 parameter logistic fitting algorithm included in the Activity Base software package: IDBS XE Designer Model205. Data is fitted using the Levenburg Marquardt algorithm.
Take `O=C(NCCc1ccc(N2CCNCC2)cc1)c1cnc2[nH]ccc2c1` [Example 1-2, N-(4-(piperazin-1-yl)phenethyl)-1H-pyrrolo[2,3-b]pyridine-5-carboxamide]: the “Assay A-1(b) (IC50 range)” value is reported as “+ (“+”: 2-10 μM)”.
Regarding `Nc1c(C(=O)NCCc2ccc(N3CCNCC3)cc2)cnc2[nH]ccc12` [Example 1-5, 4-amino-N-(4-(piperazin-1-yl)phenethyl)-1H-pyrrolo[2,3-b]pyridine-5-carboxamide], the “Assay A-1(b) (IC50 range)” value is “+ (“+”: 2-10 μM)”.
`CCn1ccc2cc(C(=O)NCCc3ccc(N4CCNCC4)cc3)cnc21` [Example 1-4, 1-ethyl-N-(4-(piperazin-1-yl)phenethyl)-1H-pyrrolo[2,3-b]pyridine-5-carboxamide]: the “Assay A-1(b) (IC50 range)” value is given as “+++ (“+++”: 0.05-0.2 μM)”.
With `CCn1ccc2cc(C(=O)NCCc3cc(F)c(N4CC5CCC(C4)N5)cc3F)cnc21` [Example 1-1, N-[2-(4-[3,8-diazabicyclo[3.2.1]octan-3-yl]-2,5-difluorophenyl)ethyl]-1-ethyl-1H-pyrrolo[2,3-b]pyridine-5-carboxamide], the “Assay A-1(b) (IC50 range)” value is listed as “+++ (“+++”: 0.05-0.2 μM)”.
For the molecule `CCn1ccc2cc(C(=O)NC[C@H](C)c3cc(F)c(N4CCNCC4)cc3F)cnc21` (single isomer, unassigned) [Example 2-2], the “Assay A-1(b) (IC50 range)” value is “+ (“+”: 2-10 μM)”.
For the molecule `O=C(NCCc1ccc(N2CCNCC2)cc1)c1cnc2[nH]cc(Cl)c2c1` [Example 3-2, 3-chloro-N-(4-(piperazin-1-yl)phenethyl)-1H-pyrrolo[2,3-b]pyridine-5-carboxamide], the “Assay A-1(b) (IC50 range)” value is “+ (“+”: 2-10 μM)”.
For `CC(C)(O)Cn1ccc2cc(C(=O)NCCc3cc(F)c(N4CC5CCC(C4)N5)cc3F)cnc21` [Example 1-9, N-(4-(3,8-diazabicyclo[3.2.1]octan-3-yl)-2,5-difluorophenethyl)-1-(2-hydroxy-2-methylpropyl)-1H-pyrrolo[2,3-b]pyridine-5-carboxamide] the value was “− (“−”: >10 μM)”.
As for `CCn1ccc2cc(C(=O)NC[C@@H](C)c3cc(F)c(N4CCNCC4)cc3F)cnc21` (single isomer, unassigned) [Example 2-1], the “Assay A-1(b) (IC50 range)” value was “++ (“++”: 0.2-2 μM)”.
For the molecule `CCn1cc(Cl)c2cc(C(=O)NCCc3ccc(N4CCNCC4)cc3)cnc21` [Example 3-1, 3-Chloro-1-ethyl-N-[2-[4-(piperazin-1-yl)phenyl]ethyl]-1H-pyrrolo[2,3-b]pyridine-5-carboxamide], the “Assay A-1(b) (IC50 range)” value is on record as “+++ (“+++”: 0.05-0.2 μM)”.
`CCn1ccc2cc(C(=O)NCCc3ccc(N4CC5CCC(C4)N5)cc3)cnc21` [Example 1-6, N-(4-(3,8-diazabicyclo[3.2.1]octan-3-yl)phenethyl)-1-ethyl-1H-pyrrolo[2,3-b]pyridine-5-carboxamide]: the “Assay A-1(b) (IC50 range)” value is “++++ (“++++”: 0.001-0.05 μM)”.
For `CCn1ccc2cc(C(=O)NCCc3ccc(N4CC5CCC(C4)N5)c(F)c3)cnc21` [Example 1-10, N-(4-(3,8-diazabicyclo[3.2.1]octan-3-yl)-3-fluorophenethyl)-1-ethyl-1H-pyrrolo[2,3-b]pyridine-5-carboxamide] the value was “+++ (“+++”: 0.05-0.2 μM)”; for `CCn1ccc2cc(C(=O)NCCc3cc(F)c(N4CCNCC4)cc3F)cnc21` [Example 1-7, N-(2,5-difluoro-4-(piperazin-1-yl)phenethyl)-1-ethyl-1H-pyrrolo[2,3-b]pyridine-5-carboxamide], “+++ (“+++”: 0.05-0.2 μM)”.
For the molecule `CCn1cc(Cl)c2cc(C(=O)NCCc3cc(F)c(N4CC5CCC(C4)N5)cc3F)nnc21` [Example 4-4, N-(4-(3,8-diazabicyclo[3.2.1]octan-3-yl)-2,5-difluorophenethyl)-5-chloro-7-ethyl-7H-pyrrolo[2,3-c]pyridazine-3-carboxamide], the “Assay A-1(b) (IC50 range)” value is listed as “+++ (“+++”: 0.05-0.2 μM)”.
As to `CCn1ccc2cc(C(=O)NC[C@@H](C)c3cc(F)c(N4CC5CCC(C4)N5)cc3F)cnc21` (single isomer, unassigned) [Example 2-4], the “Assay A-1(b) (IC50 range)” value is “++ (“++”: 0.2-2 μM)”.
For `CCn1ccc2cc(C(=O)NC[C@@H](C)c3cc(F)c(N4CC5CCC(C4)N5)cc3F)nnc21` (single isomer, unassigned) [Example 4-3], the “Assay A-1(b) (IC50 range)” value is recorded as “++ (“++”: 0.2-2 μM)”.
Turning to `O=C(NCCc1ccc(N2CCNCC2)cc1)c1cnc2c(ccn2CC(F)(F)F)c1` [Example 1-8], the “Assay A-1(b) (IC50 range)” value is recorded as “+++ (“+++”: 0.05-0.2 μM)”.
Consider `CCn1ccc2cc(C(=O)NCCc3cc(F)c(N4CC5CCC(C4)N5)cc3F)nnc21` [Example 4-1, N-[2-(4-[3,8-diazabicyclo[3.2.1]octan-3-yl]-2,5-difluorophenyl)ethyl]-7-ethyl-7H-pyrrolo[2,3-c]pyridazine-3-carboxamide], for which the “Assay A-1(b) (IC50 range)” value is recorded as “+++ (“+++”: 0.05-0.2 μM)”.
The entry for `Cn1ccc2cc(C(=O)NCCc3ccc(N4CCNCC4)cc3)cnc21` [Example 1-3, 1-methyl-N-(4-(piperazin-1-yl)phenethyl)-1H-pyrrolo[2,3-b]pyridine-5-carboxamide] is “++ (“++”: 0.2-2 μM)”.
The entry for `CCn1ccc2cc(C(=O)NC[C@H](C)c3cc(F)c(N4CC5CCC(C4)N5)cc3F)nnc21` (single isomer, unassigned) [Example 4-2] is “++ (“++”: 0.2-2 μM)”; for `CCn1ccc2cc(C(=O)NC[C@H](C)c3cc(F)c(N4CC5CCC(C4)N5)cc3F)cnc21` (single isomer, unassigned) [Example 2-3] it is “++ (“++”: 0.2-2 μM)”.
